Key:
male CD-1 mice = assay: forced swim test (FST), preclinical model of depression; type: in vivo; conditions: n=8/group, 50 mgs/kg orally once a day for seven days, FST on seventh day; for immobilization time (2-6 minutes): compared with fluoxetine 30 mg/kg, one-way ANOVA, Fisher LSD, FIG. 1; for latency to immobility: compared with vehicle control, FIG. 2
Method: The forced swim test (FST) is a widely accepted pre-clinical model to test the anti-depressive effects of molecules (Can A, Dao D T, Arad M, Terrillion C E, Piantadosi S C, Gould T D. The Mouse Forced Swim Test. J Vis Exp. 2012; (59): 3638. doi: 10.3791/3638).
Briefly, male CD-1 mice (approximately 25-35 g, n=8/group) were dosed orally once a day with either vehicle (2% aqueous DMSO, 0.5% carboxymethyl cellulose), compound 1 (50 mgs/kg in vehicle), compound 2 (50 mgs/kg in vehicle) or fluoxetine (aka. Prozac®, 30 mg/kg in vehicle) for seven days. Seven days is a comparatively short time to observe an anti-depressant effect with an orally dosed drug. On the seventh day, animals were tested in the FST and observed for abnormal behaviours (e.g. hallucinating).

[1] = biological target: brain derived neurotrophic factor (BDNF) receptor TrkB (Homo sapiens, UniProt Q16620); conditions: cited from Shen J et al.; cited from earlier work
brain derived neurotrophic factor (BDNF) receptor TrkB, sequence (Q16620 32-822): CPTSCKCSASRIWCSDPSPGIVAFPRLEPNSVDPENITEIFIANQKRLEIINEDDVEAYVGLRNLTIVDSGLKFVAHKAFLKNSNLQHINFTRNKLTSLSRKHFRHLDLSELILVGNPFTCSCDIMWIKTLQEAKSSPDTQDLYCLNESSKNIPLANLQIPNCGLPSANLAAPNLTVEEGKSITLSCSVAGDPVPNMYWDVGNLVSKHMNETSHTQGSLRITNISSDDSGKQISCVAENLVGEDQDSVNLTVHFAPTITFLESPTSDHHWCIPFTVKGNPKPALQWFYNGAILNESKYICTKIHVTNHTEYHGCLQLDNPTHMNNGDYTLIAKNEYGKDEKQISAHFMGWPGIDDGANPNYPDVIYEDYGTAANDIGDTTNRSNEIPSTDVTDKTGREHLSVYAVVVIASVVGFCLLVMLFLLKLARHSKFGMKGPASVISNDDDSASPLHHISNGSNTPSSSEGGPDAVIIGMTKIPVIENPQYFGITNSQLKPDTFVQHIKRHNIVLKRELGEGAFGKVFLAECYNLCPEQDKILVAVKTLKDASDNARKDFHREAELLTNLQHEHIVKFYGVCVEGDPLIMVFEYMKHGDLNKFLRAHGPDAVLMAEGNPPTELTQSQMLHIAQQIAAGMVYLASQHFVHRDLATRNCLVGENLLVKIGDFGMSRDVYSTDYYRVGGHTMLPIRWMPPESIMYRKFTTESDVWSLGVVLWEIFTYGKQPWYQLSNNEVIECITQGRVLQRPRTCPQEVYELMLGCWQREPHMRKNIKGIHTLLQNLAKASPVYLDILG

| Compound | immobilization time (2-6 minutes) (male CD-1 mice) | latency to immobility (male CD-1 mice) | activation of BDNF receptor TrkB [1] |
| --- | --- | --- | --- |
| O=C1NCCCC1C(=O)NCCc1c[nH]c2ccc(OP(=O)(O)O)cc12 (centres unmarked) [Compound 1, N-{2-[5-(Dihydroxyphosphoryloxy)-1H-indol-3-yl]ethyl}-2-oxo-3-piperidinecarboxamide] | significantly better than fluoxetine | better than vehicle control |  |
| O=C(CN1CCCC1=O)NCCc1c[nH]c2ccc(OP(=O)(O)O)cc12 [Compound 2, N-{2-[5-(dihydroxyphosphoryloxy)-1H-indol-3-yl]ethyl}(2-oxo-1-pyrrolidinyl) acetamide] | significantly better than fluoxetine | better than vehicle control |  |
| N-[2-(5-hydroxy-1H-indol-3-yl)ethyl]-2-oxopiperidine-3-carboxyamide [HIOC] |  |  | activate |

Reference: US20250002512A1, “NOVEL ANTI-[…] NE[…] AND THERAPEUTIC USES THEREOF” (MARVEL BIOTECHNOLOGY, priority 2021, published 2025)
